Reference: patent US10160747B2, “Compounds and methods for kinase modulation, and indications therefor” (Plexxikon Inc., priority 2016, dated 2018)

Target: T1, BA/F3-FLT3-ITD + D835Y (Homo sapiens, UniProt P36888, D835Y, cells depend on it, form not given)
T1 sequence (P36888 with tags, fused parts or gaps INS600HVDFREYEYD/D835Y): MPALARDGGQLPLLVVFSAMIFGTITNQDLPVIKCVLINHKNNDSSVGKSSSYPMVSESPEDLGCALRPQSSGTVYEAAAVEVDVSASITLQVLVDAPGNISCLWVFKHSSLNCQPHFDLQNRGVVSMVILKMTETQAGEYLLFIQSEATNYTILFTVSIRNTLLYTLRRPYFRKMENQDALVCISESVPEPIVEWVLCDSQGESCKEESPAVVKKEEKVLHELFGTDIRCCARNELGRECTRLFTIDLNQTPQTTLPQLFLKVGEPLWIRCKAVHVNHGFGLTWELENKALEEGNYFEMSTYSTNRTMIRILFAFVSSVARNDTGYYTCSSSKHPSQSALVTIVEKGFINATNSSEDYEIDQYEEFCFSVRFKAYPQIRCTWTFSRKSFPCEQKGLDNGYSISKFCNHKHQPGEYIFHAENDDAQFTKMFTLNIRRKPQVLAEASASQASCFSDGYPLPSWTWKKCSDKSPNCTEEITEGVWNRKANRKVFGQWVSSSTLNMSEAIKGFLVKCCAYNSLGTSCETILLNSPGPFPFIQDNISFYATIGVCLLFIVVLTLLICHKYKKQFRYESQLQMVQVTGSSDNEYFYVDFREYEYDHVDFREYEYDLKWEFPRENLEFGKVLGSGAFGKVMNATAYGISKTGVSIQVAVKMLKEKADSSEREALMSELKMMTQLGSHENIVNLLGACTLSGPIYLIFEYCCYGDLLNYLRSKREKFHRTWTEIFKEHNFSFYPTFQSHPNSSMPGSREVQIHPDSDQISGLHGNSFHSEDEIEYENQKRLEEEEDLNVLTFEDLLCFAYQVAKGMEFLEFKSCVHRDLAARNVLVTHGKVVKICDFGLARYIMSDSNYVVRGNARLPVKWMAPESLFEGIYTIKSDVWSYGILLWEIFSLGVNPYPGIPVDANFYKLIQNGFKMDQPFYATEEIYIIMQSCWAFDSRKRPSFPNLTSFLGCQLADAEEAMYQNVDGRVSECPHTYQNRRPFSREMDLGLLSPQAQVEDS
Assay: Engineered BA/F3 cell growth assay, FLT3 ITD/D835Y
Assay type: cell-based, murine
Details: 3 d growth
Procedure, shortened: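 Murine Ba/F3 cells transfected with full-length FLT3 ITD/D835Y, grown without IL-3 so growth depends on FLT3. Seeded at 1×10^4 cells/well, 8-point 1:3 series to 1 μM top (0.2% DMSO), 3 days at 37 °C. CellTiter-Glo luminescence (ATP) versus concentration gave IC50.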

SMILES | GI50
CC(=O)c1c[nH]c2ncc(-c3ccc(CC(=O)Nc4ccnc(C(F)(F)F)c4)c(F)c3)cc12 [Compound P-0031, 2-(4-(3-acetyl-1H-pyrrolo[2,3-b]pyridin-5-yl)-2-fluorophenyl)-N-(2-(trifluoromethyl)pyridin-4-yl)acetamide] | 0.0001 to 10 µM
O=C(Cc1ccc(-c2cnc3[nH]cc(C(=O)C4CC4)c3c2)cc1F)Nc1ccnc(C(F)(F)F)c1 [Compound P-0032, 2-[4-[3-(cyclopropanecarbonyl)-1H-pyrrolo[2,3-b]pyridin-5-yl]-2-fluoro-phenyl]-N-[2-(trifluoromethyl)-4-pyridyl]acetamide] | 0.0001 to 10 µM
O=C(Cc1ccc(-c2cnc(Nc3cnn4ccccc34)nc2)cc1F)Nc1ccnc(C(F)(F)F)c1 [Compound P-0033, 2-[2-fluoro-4-[2-(pyrazolo[1,5-a]pyridin-3-ylamino)pyrimidin-5-yl]phenyl]-N-[2-(trifluoromethyl)-4-pyridyl]acetamide] | 0.0001 to 10 µM
COc1ncc(NC(=O)Cc2ccc(-c3cnc4[nH]cc(F)c4c3)cc2F)cc1C(F)(F)F [Compound P-0034, 2-[2-fluoro-4-(3-fluoro-1H-pyrrolo[2,3-b]pyridin-5-yl)phenyl]-N-[6-methoxy-5-(trifluoromethyl)-3-pyridyl]acetamide] | 0.0001 to 10 µM
COc1ncc(NC(=O)Cc2ccc(-c3cnc4[nH]cc(C(C)=O)c4c3)cc2F)cc1C(F)(F)F [Compound P-0035, 2-[4-(3-acetyl-1H-pyrrolo[2,3-b]pyridin-5-yl)-2-fluoro-phenyl]-N-[6-methoxy-5-(trifluoromethyl)-3-pyridyl]acetamide] | 0.0001 to 10 µM
COc1ncc(NC(=O)Cc2ccc(-c3cnc4[nH]cc(C(=O)C5CC5)c4c3)cc2F)cc1C(F)(F)F [Compound P-0036, 2-[4-[3-(cyclopropanecarbonyl)-1H-pyrrolo[2,3-b]pyridin-5-yl]-2-fluoro-phenyl]-N-[6-methoxy-5-(trifluoromethyl)-3-pyridyl]acetamide] | 0.0001 to 10 µM
COc1ncc(NC(=O)Cc2ccc(-c3cnc(Nc4cnn5ccccc45)nc3)cc2F)cc1C(F)(F)F [Compound P-0037, 2-[2-fluoro-4-[2-(pyrazolo[1,5-a]pyridin-3-ylamino)pyrimidin-5-yl]phenyl]-N-[6-methoxy-5-(trifluoromethyl)-3-pyridyl]acetamide] | 0.0001 to 10 µM
COc1ncc(NC(=O)Cc2ccc(-c3cnc4[nH]c(Cl)cc4c3)cc2F)cc1C(F)(F)F [Compound P-0038, 2-[4-(2-chloro-1H-pyrrolo[2,3-b]pyridin-5-yl)-2-fluoro-phenyl]-N-[6-methoxy-5-(trifluoromethyl)-3-pyridyl]acetamide] | 0.0001 to 10 µM
CC(C)(C)c1ccc(NC(=O)Cc2ccc(-c3cnc4[nH]cc(F)c4c3)cc2F)cn1 [Compound P-0043, N-(6-tert-butyl-3-pyridyl)-2-[2-fluoro-4-(3-fluoro-1H-pyrrolo[2,3-b]pyridin-5-yl)phenyl]acetamide] | 0.0001 to 10 µM
O=C(Cc1ccc(-c2cnc3[nH]cc(F)c3c2)cc1F)Nc1cc(Cl)c(C2CC2)cn1 [Compound P-0044, N-(4-chloro-5-cyclopropyl-2-pyridyl)-2-[2-fluoro-4-(3-fluoro-1H-pyrrolo[2,3-b]pyridin-5-yl)phenyl]acetamide] | 0.0001 to 10 µM
COc1ncc(NC(=O)Cc2cc(F)c(-c3cnc4[nH]c(Cl)cc4c3)cc2F)cc1C(F)(F)F [Compound P-0045, 2-[4-(2-chloro-1H-pyrrolo[2,3-b]pyridin-5-yl)-2,5-difluoro-phenyl]-N-[6-methoxy-5-(trifluoromethyl)-3-pyridyl]acetamide] | 0.0001 to 10 µM
COc1ncc(NC(=O)Cc2ccc(-c3cnc4[nH]c(Cl)cc4c3)c(F)c2)cc1C(F)(F)F [Compound P-0046, 2-[4-(2-chloro-1H-pyrrolo[2,3-b]pyridin-5-yl)-3-fluoro-phenyl]-N-[6-methoxy-5-(trifluoromethyl)-3-pyridyl]acetamide] | 0.0001 to 10 µM
COc1ncc(NC(=O)Cc2ccc(-c3cnc4[nH]cc(Cl)c4n3)cc2F)cc1C(F)(F)F [Compound P-0047, 2-[4-(7-chloro-5H-pyrrolo[2,3-b]pyrazin-2-yl)-2-fluoro-phenyl]-N-[6-methoxy-5-(trifluoromethyl)-3-pyridyl]acetamide] | 0.0001 to 10 µM
COc1ncc(NC(=O)Cc2ccc(-c3cnc4[nH]cc(F)c4c3)c(F)c2)cc1C(F)(F)F [Compound P-0048, 2-[3-fluoro-4-(3-fluoro-1H-pyrrolo[2,3-b]pyridin-5-yl)phenyl]-N-[6-methoxy-5-(trifluoromethyl)-3-pyridyl]acetamide] | 0.0001 to 10 µM
COc1nn(C[C@H](C)O)cc1Nc1ncc(-c2ccc(CC(=O)Nc3cncc(C(F)(F)F)c3)c(F)c2)cn1 [Compound P-0050, 2-[2-fluoro-4-[2-[[1-[(2S)-2-hydroxypropyl]-3-methoxy-pyrazol-4-yl]amino]pyrimidin-5-yl]phenyl]-N-[5-(trifluoromethyl)-3-pyridyl]acetamide] | 0.0001 to 10 µM
COc1ncc(NC(=O)Cc2cc(F)c(-c3cnc4[nH]cc(F)c4c3)cc2F)cc1C(F)(F)F [Compound P-0051, 2-[2,5-difluoro-4-(3-fluoro-1H-pyrrolo[2,3-b]pyridin-5-yl)phenyl]-N-[6-methoxy-5-(trifluoromethyl)-3-pyridyl]acetamide] | 0.0001 to 10 µM

Continued, values first:

GI50 | SMILES
0.0001 to 10 µM | Cc1cc(CC(=O)Nc2cccc(C(F)(F)F)c2)ccc1-c1cnc2[nH]c(-c3ccccc3)cc2c1 [Compound P-0002, 2-[3-methyl-4-(2-phenyl-1H-pyrrolo[2,3-b]pyridin-5-yl)phenyl]-N-[3-(trifluoromethyl)phenyl]acetamide]
0.0001 to 10 µM | O=C(Cc1ccc(-c2cnc(Nc3cnn(C(F)F)c3)nc2)c(F)c1)Nc1cc(C(F)(F)F)ccn1 [Compound P-0024, 2-[4-[2-[[1-(difluoromethyl)pyrazol-4-yl]amino]pyrimidin-5-yl]-3-fluoro-phenyl]-N-[4-(trifluoromethyl)-2-pyridyl]acetamide]
0.0001 to 10 µM | COc1ncc(NC(=O)Cc2ccc(-c3cnc(Nc4cn[nH]c4)nc3)cc2)cc1C(F)(F)F [Compound P-0025, N-[6-methoxy-5-(trifluoromethyl)-3-pyridyl]-2-[4-[2-(1H-pyrazol-4-ylamino)pyrimidin-5-yl]phenyl]acetamide]
0.0001 to 10 µM | COc1ncc(NC(=O)Cc2ccc(-c3cnc(Nc4cn[nH]c4)nc3)cc2F)cc1C(F)(F)F [Compound P-0026, 2-[2-fluoro-4-[2-(1H-pyrazol-4-ylamino)pyrimidin-5-yl]phenyl]-N-[6-methoxy-5-(trifluoromethyl)-3-pyridyl]acetamide]
0.0001 to 10 µM | Cc1ncc(NC(=O)Cc2ccc(-c3cnc(Nc4cn[nH]c4)nc3)cc2F)cc1C(F)(F)F [Compound P-0027, 2-[2-fluoro-4-[2-(1H-pyrazol-4-ylamino)pyrimidin-5-yl]phenyl]-N-[6-methyl-5-(trifluoromethyl)-3-pyridyl]acetamide]
0.0001 to 10 µM | O=C(Cc1ccc(-c2cnc3[nH]cc(F)c3c2)cc1F)Nc1ccnc(C(F)(F)F)c1 [Compound P-0029, 2-[2-fluoro-4-(3-fluoro-1H-pyrrolo[2,3-b]pyridin-5-yl)phenyl]-N-[2-(trifluoromethyl)-4-pyridyl]acetamide]
0.0001 to 10 µM | O=C(Cc1ccc(-c2cnc3[nH]c(Cl)cc3c2)cc1F)Nc1ccnc(C(F)(F)F)c1 [Compound P-0030, 2-[4-(2-chloro-1H-pyrrolo[2,3-b]pyridin-5-yl)-2-fluoro-phenyl]-N-[2-(trifluoromethyl)-4-pyridyl]acetamide]
